Our source for the IC50 values is US7268128B2, “1,3,5-trisubstituted-5-phenyl and 5-pyridyl pyrazolopyrimidinone derivatives having PDE7 inhibiting action” (Ausbio Pharma Co., Ltd., priority 2001, dated 2007).

SMILES strings stand for the structures.

T1 sequence (Q13946 whole entry): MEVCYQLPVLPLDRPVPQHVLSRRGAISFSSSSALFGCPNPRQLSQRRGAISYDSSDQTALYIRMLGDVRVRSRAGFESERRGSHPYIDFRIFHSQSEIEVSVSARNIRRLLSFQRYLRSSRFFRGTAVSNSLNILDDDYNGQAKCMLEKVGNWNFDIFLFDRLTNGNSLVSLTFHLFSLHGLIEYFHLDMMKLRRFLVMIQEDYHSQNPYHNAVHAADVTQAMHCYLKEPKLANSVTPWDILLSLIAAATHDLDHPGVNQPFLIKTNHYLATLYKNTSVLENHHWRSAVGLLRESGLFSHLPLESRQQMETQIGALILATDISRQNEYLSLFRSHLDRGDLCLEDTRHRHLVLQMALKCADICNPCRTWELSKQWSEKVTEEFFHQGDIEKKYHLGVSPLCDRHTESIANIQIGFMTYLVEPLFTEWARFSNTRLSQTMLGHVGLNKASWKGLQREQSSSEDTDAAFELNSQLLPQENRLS

The test concerns the target T1, PDE7 (type VII phosphodiesterase) (Homo sapiens, UniProt Q13946).
T1 construct: endogenous in cells; host or cells: MOLT-4 (ATCC CRL-1582), soluble fraction, HiTrapQ anion-exchange fraction
Briefly: PDE7 inhibiting activity (3H-cAMP hydrolysis, active fraction from MOLT-4 cells). The class given is biochemical. The conditions noted are these: PDE7 fraction from MOLT-4 cells, 0.064 μM cAMP, 10 μM rolipram present, 2 hours at 25° C.; read-out: IC50 values for phosphodiesterase inhibiting activities (PDE7). Here is the method:
To evaluate the compounds of the present invention for the ability to suppress PDE7 (type VII phosphodiesterase), the method of Biochemical Pharmacol. 48(6), 1219-1223 (1994) was partially modified to perform the following assay:
1) PDE7 (type VII phosphodiesterase) active fraction was obtained. That is, human acute lymphoblastoid lymphoma T cell strain MOLT-4 (purchasable from ATCC under ATCC No. CRL-1582) was cultured in RPMI1640 medium containing 10% fetal bovine serum to obtain 5×10^8 MOLT4 cells. The cells were harvested by centrifugation, and suspended in 10 ml of buffer A (25 mM tris-HCl, 5 mM 2-mercaptoethanol, 2 mM benzamidine, 2 mM EDTA, 0.1 mM 4-(2-aminoethyl)benzenesulfonyl hydrochloride, pH 7=7.5). The cells were homogenized in a Polytoron homogenizer, and centrifuged (4° C., 25,000 G, 10 min). The supernatant was further ultracentrifuged (4° C., 100,000 G, 60 min), and the resulting supernatant was filtered through a 0.2 μm filter to obtain a soluble fraction.
2) HiTrapQ column (5 ml×2) equilibrated with buffer A was charged with the resulting soluble fraction. Phosphodiesterase was eluted using 300 ml of buffer A containing a linear gradient solution of 0 to 0.8M sodium chloride to collect sixty 5 ml fractions. Each fraction was tested for cAMP metabolizing phosphodiesterase activity.
3) The test compounds at desired concentrations were each reacted for 2 hours at 25° C. in a reactant mixture containing 20 mM tris-HCl (pH 7.5), 1 mM MgCl2, 100 μM EDTA, 330 μg/ml bovine serum albumin, 4 μg/ml 5′-nucleotidase, 0.1 μCi^3H-cAMP (0.064 μM cAMP), 10 μM rolipram, and the type VII phosphodiesterase stored solution. QAE-Sephadex suspended in 10 mM HEPES-Na (pH 7.0) was added to the reaction mixture, and the mixture was allowed to stand for 5 minutes. Then, the supernatant was recovered, and QAE-Sephadex was further added, followed by allowing the mixture to stand for 5 minutes. Then, the resulting supernatant was measure for radioactivity.
4) IC50, as the concentration of the test compound that inhibited 50% of the metabolic activity of PDE7, was calculated for each of the compounds.
A word on the IC50: it is the concentration that inhibits the measured activity by half. As to `Cc1nn(C2CCCCC2)c2c(=O)[nH]c(-c3ccccc3)nc12` [Example 1, 1-Cyclohexyl-3-methyl-5-phenyl-1,6-dihydro-7H-pyrazolo[4,3-d]pyrimidin-7-one], the IC50 was not above 1000 nM.

As to `Cc1nn(C2CCCCC2)c2c(=O)[nH]c(-c3ccc([N+](=O)[O-])cc3)nc12` [Example 2, 1-Cyclohexyl-3-methyl-5-(4-nitrophenyl)-1,6-dihydro-7H-pyrazolo[4,3-d]pyrimidin-7-one], the IC50 is not above 1000 nM.

`Cc1nn(C2CCCCC2)c2c(=O)[nH]c(-c3ccc(N)cc3)nc12` [Example 3, 5-(4-Aminophenyl)-1-cyclohexyl-3-methyl-1,6-dihydro-7H-pyrazolo[4,3-d]pyrimidin-7-one]: the IC50 was not above 1000 nM.

Take `CC(=O)Nc1ccc(-c2nc3c(C)nn(C4CCCCC4)c3c(=O)[nH]2)cc1` [Example 4, N-[4-(1-cyclohexyl-3-methyl-7-oxo-6,7-dihydro-1H-pyrazolo[4,3-d]pyrimidin-5-yl)phenyl]acetamide]: the half-inhibitory concentration (IC50) is not above 1000 nM.

With `COc1ccccc1-c1nc2c(C)nn(C3CCCCC3)c2c(=O)[nH]1` [Example 5, 1-Cyclohexyl-5-(2-methoxyphenyl)-3-methyl-1,6-dihydro-7H-pyrazolo[4,3-d]pyrimidin-7-one], the IC50 was not above 1000 nM.

On to `Cc1nn(C2CCCCC2)c2c(=O)[nH]c(-c3ccccn3)nc12` [Example 6, 1-Cyclohexyl-3-methyl-5-(2-pyridinyl)-1,6-dihydro-7H-pyrazolo[4,3-d]pyrimidin-7-one], for which the IC50 was not above 1000 nM.

On to `Cc1nn(C2CCCCC2)c2c(=O)[nH]c(-c3ccc(N4CCN(C)CC4)cc3)nc12` [Example 7, 1-Cyclohexyl-3-methyl-5-[4-(4-methyl-1-piperazinyl)phenyl]-1,6-dihydro-7H-pyrazolo[4,3-d]pyrimidin-7-one], for which the IC50 was not above 1000 nM.

For the molecule `COc1cc([N+](=O)[O-])ccc1-c1nc2c(C)nn(C3CCCCC3)c2c(=O)[nH]1` [Example 8, 1-Cyclohexyl-5-(2-methoxy-4-nitrophenyl)-3-methyl-1,6-dihydro-7H-pyrazolo[4,3-d]pyrimidin-7-one], the concentration for half-maximal inhibition (IC50) is not above 1000 nM.

For the molecule `COc1cc(NC(C)=O)ccc1-c1nc2c(C)nn(C3CCCCC3)c2c(=O)[nH]1` [Example 10, N-[4-(1-cyclohexyl-3-methyl-7-oxo-6,7-dihydro-1H-pyrazolo[4,3-d]pyrimidin-5-yl)-3-methoxyphenyl]acetamide], the IC50 was not above 1000 nM.

For `Cc1nn(C2CCCCC2)c2c(=O)[nH]c(-c3ccc(N)cn3)nc12` [Example 11, 5-(5-Amino-2-pyridinyl)-1-cyclohexyl-3-methyl-1,6-dihydro-7H-pyrazolo[4,3-d]pyrimidin-7-one], the IC50 was not above 1000 nM.

For `CC(=O)Nc1ccc(-c2nc3c(C)nn(C4CCCCC4)c3c(=O)[nH]2)nc1` [Example 12, N-[6-(1-cyclohexyl-3-methyl-7-oxo-1H-pyrazolo[4,3-d]pyrimidin-5-yl)-3-pyridinyl]acetamide], the IC50 was not above 1000 nM.

Turning to `CCOc1ccccc1-c1nc2c(C)nn(C3CCCCC3)c2c(=O)[nH]1` [Example 13, 1-Cyclohexyl-5-(2-ethoxyphenyl)-3-methyl-1,6-dihydro-7H-pyrazolo[4,3-d]pyrimidin-7-one], the concentration for half-maximal inhibition (IC50) was not above 1000 nM.

On to `Cc1nn(C2CCCCC2)c2c(=O)[nH]c(-c3ccc(N4CCC(O)CC4)cc3)nc12` [Example 14, 1-Cyclohexyl-5-[4-(4-hydroxy-1-piperidinyl)phenyl]-3-methyl-1,6-dihydro-7H-pyrazolo[4,3-d]pyrimidin-7-one], for which the IC50 was not above 1000 nM.

Turning to `COc1cc(N2CCN(C)CC2)ccc1-c1nc2c(C)nn(C3CCCCC3)c2c(=O)[nH]1` [Example 16, 1-Cyclohexyl-5-[2-methoxy-4-(4-methyl-1-piperazinyl)phenyl]-3-methyl-1,6-dihydro-7H-pyrazolo[4,3-d]pyrimidin-7-one], the IC50 was not above 1000 nM.

Turning to `Cc1nn(C2CCCCC2)c2c(=O)[nH]c(-c3cc(Cl)ccn3)nc12` [Example 17, 5-(4-Chloro-2-pyridinyl)-1-cyclohexyl-3-methyl-1,6-dihydro-7H-pyrazolo[4,3-d]pyrimidin-7-one], the IC50 is not above 1000 nM.

Regarding `COc1ccc(F)cc1-c1nc2c(C)nn(C3CCCCC3)c2c(=O)[nH]1` [Example 18, 1-Cyclohexyl-5-(5-fluoro-2-methoxyphenyl)-3-methyl-1,6-dihydro-7H-pyrazolo[4,3-d]pyrimidin-7-one], the 50% inhibitory concentration (IC50) was not above 1000 nM.

With `COc1ccccc1-c1nc2c(c(C3CCCCC3)nn2C)c(=O)[nH]1` [Example 24, 3-Cyclohexyl-6-(2-methoxyphenyl)-1-methyl-1,5-dihydro-4H-pyrazolo[3,4-d]pyrimidin-4-one], the IC50 is not above 1000 nM.

For `Cn1nc(C2CCCCC2)c2c(=O)[nH]c(-c3ccccn3)nc21` [Example 25, 3-Cyclohexyl-1-methyl-6-(2-pyridinyl)-1,5-dihydro-4H-pyrazolo[3,4-d]pyrimidin-4-one], the IC50 is not above 1000 nM.

In the case of `COc1cc(N2CCN(C)CC2)ccc1-c1nc2c(c(C3CCCCC3)nn2C)c(=O)[nH]1` [Example 27, 3-Cyclohexyl-6-[2-methoxy-4-(4-methyl-1-piperazinyl)phenyl]-1-methyl-1,5-dihydro-4H-pyrazolo[3,4-d]pyrimidin-4-one], the IC50 is not above 10 nM.

In the case of `COc1cc(N2CCN(C)CC2)ccc1-c1nc2c(c(C3CCCCC3)nn2C)c(=O)[nH]1` [Example 28, 3-Cyclohexyl-6-[2-methoxy-4-(4-methyl-1-piperazinyl)phenyl]-1-methyl-1,5-dihydro-4H-pyrazolo[3,4-d]pyrimidin-4-one monomethanesulfonate], the IC50 was not above 10 nM.

For the molecule `COc1cc(N2CCC3(CC2)OCCO3)ccc1-c1nc2c(c(C3CCCCC3)nn2C)c(=O)[nH]1` [Example 29, 3-Cyclohexyl-6-[4-(1,4-dioxa-8-azaspiro[4,5]deca-8-yl)-2-methoxyphenyl]-1-methyl-1,5-dihydro-4H-pyrazolo[3,4-d]pyrimidin-4-one], the IC50 is not above 1000 nM.

As for `COc1cc(N2CCC(O)CC2)ccc1-c1nc2c(c(C3CCCCC3)nn2C)c(=O)[nH]1` [Example 31, 3-Cyclohexyl-6-[4-(4-hydroxy-1-piperidinyl)-2-methoxyphenyl]-1-methyl-1,5-dihydro-4H-pyrazolo[3,4-d]pyrimidin-4-one], the IC50 was not above 10 nM.

In the case of `COc1cc(N2CCC(O)CC2)ccc1-c1nc2c(c(C3CCCCC3)nn2C)c(=O)[nH]1` [Example 32, 3-Cyclohexyl-6-[4-(4-hydroxy-1-piperidinyl)-2-methoxyphenyl]-1-methyl-1,5-dihydro-4H-pyrazolo[3,4-d]pyrimidin-4-one monomethanesulfonate], the IC50 is not above 10 nM.

With `COCCOc1ccc(-c2nc3c(c(C4CCCCC4)nn3C)c(=O)[nH]2)c(OC)c1` [Example 34, 3-Cyclohexyl-6-[2-methoxy-4-(2-methoxyethoxy)phenyl]-1-methyl-1,5-dihydro-4H-pyrazolo[3,4-d]pyrimidin-4-one], the IC50 was not above 1000 nM.

In the case of `COc1cc(OCCO)ccc1-c1nc2c(c(C3CCCCC3)nn2C)c(=O)[nH]1` [Example 37, 3-Cyclohexyl-6-[4-(2-hydroxyethoxy)-2-methoxyphenyl]-1-methyl-1,5-dihydro-4H-pyrazolo[3,4-d]pyrimidin-4-one], the IC50 was not above 1000 nM.

Consider `COc1cc(O[C@H]2CCOC2)ccc1-c1nc2c(c(C3CCCCC3)nn2C)c(=O)[nH]1` [Example 38, 3-Cyclohexyl-6-{2-methoxy-4-[(3S)-tetrahydro-3-furanyloxy]phenyl}-1-methyl-1,5-dihydro-4H-pyrazolo[3,4-d]pyrimidin-4-one], for which the IC50 was not above 10 nM.

Regarding `COc1cc(O[C@@H]2CCOC2)ccc1-c1nc2c(c(C3CCCCC3)nn2C)c(=O)[nH]1` [Example 39, 3-Cyclohexyl-6-{2-methoxy-4-[(3R)-tetrahydro-3-furanyloxy]phenyl}-1-methyl-1,5-dihydro-4H-pyrazolo[3,4-d]pyrimidin-4-one], the IC50 was not above 1000 nM.

As for `COc1cc(OCC(=O)O)ccc1-c1nc2c(c(C3CCCCC3)nn2C)c(=O)[nH]1` [Example 41, [4-(3-cyclohexyl-1-methyl-4-oxo-4,5-dihydro-1H-pyrazolo[3,4-d]pyrimidin-6-yl)-3-methoxyphenoxy]acetic acid], the IC50 is not above 1000 nM.

Regarding `COc1cc(OC2CCN(C)CC2)ccc1-c1nc2c(c(C3CCCCC3)nn2C)c(=O)[nH]1` [Example 42, 3-Cyclohexyl-6-{2-methoxy-4-[(-methyl-4-piperidinyl)oxy]phenyl}-1-methyl-1,5-dihydro-4H-pyrazolo[3,4-d]pyrimidin-4-one monomaleate], the IC50 was not above 1000 nM.
